Data reported in patent US20110129450A1, “METHOD OF PROMOTING NEUROGENESIS BY MODULATING SECRETASE ACTIVITIES” (priority 2008, published 2011).
“Also recorded” adds a separate entry of the source.

Columns and labels:
PS1 = experiment: Immunoblot of PS1 expression in N2a cells transduced with lentiviral vector; type: cell-based, murine; details: N2a cells five days following transduction, versus GFP only or irrelevant siRNA; FIG. 6A
From the text: PS1 siRNA lentiviruses were verified by immunoblot analysis for the reduction of PS1 protein expression in N2a cells transduced with the lentiviral vector. N2a cells were transduced with the purified shRNA vector preparation followed by immunoblot analysis using anti-PS1 polyclonal antibody (Lazarov et al., 2005, J. Neurosci. 25: 2386-95.). Presenilins undergo cleavage in an alpha helical region of one of the cytoplasmic loops to produce a larger N-terminal (“PS1 NTF”) and a smaller C-terminal fragment which together form part of the functional protein. […] PS1 siRNA 4-11 (lane 1) refers to a different PS1 siRNA construct having the siRNA sequence of 5′ GGACCAACTTGCATTCCAT 3′ (SEQ ID NO:18) under the U6 promoter. The samples in lanes 6 and 7 were brain extracts of transgenic mice harboring PS1HWT (wild type human PS1; lane 6) and PS1ΔE9 (human PS1 with exon 9 deleted; lane 7), both of which served as positive controls for PS1 detection.

sAPP = experiment: Immunoblot of sAPP in conditioned media of treated NSC (22C11 antibody); type: cell-based, mice; details: NSC cultures, versus GM6001NK; FIG. 3B
From the text: APPWT CM represents proliferation results of GM6001-treated cells supplemented with APPWT-conditioned media. (B) Immunoblot analysis of sAPP levels in conditioned media from GM6001- and GM6001NK-treated NSC using the 22C11 antibody.
Results were obtained as percentages of BrdU positive cells in GM6001-treated culture over BrdU positive cells in the control culture treated with DMSO (FIG. 3A). […] To examine the possibility that reduced proliferation was a result of reduced levels of sAPP, GM6001-treated cells were supplemented with conditioned media of neurospheres derived from APPWT mice, in which the α-secretase cleavage product sαAPP was present. […] The secretion levels of sAPP were also examined by immunoblot analysis in the conditioned media of GM6001- or GM6001NK-treated cells.

[1] = tested on: neural stem cells isolated from the SVZ of adult wild type mice; experiment: BrdU proliferation assay of neurosphere cultures treated with ADAM inhibitor; type: cell-based; details: treated 48 hours, compared to inactive analog GM6001NK; FIG. 3A
Description: The role for α-secretase in regulating proliferation of NSCs was examined. Neurosphere cultures were established from neural stem cells isolated from the SVZ of adult wild type mice. […] Thereafter, cells were pulse-labeled with 5 μM BrdU for 24 hours before fixation in 4% paraformaldehyde (PFA). The fixed cells were incubated with anti-BrdU antibodies and then HRP-conjugated secondary antibodies, followed by incubation with the TMD peroxidase substrate (Pierce Protein Research Products, Thermo Scientific, Rockford, Ill.). Signals were detected using a plate reader at 450-595 nm.

[2] = tested on: neurospheres derived from adult mice neural stem cells; experiment: Neurosphere diameter assay of singly dissociated adult NSCs plated for 8 days; type: cell-based; details: FIG. 4
From the text: Both α- and β-secretases can cleave membrane-bound APP and release the secreted form of APP (sAPP). Proteolytic cleavage of APP by α-secretase releases one form of the secreted APP referred to as sαAPP, whereas cleavage of APP by β-secretase releases a C-terminally truncated sAPP referred to as sβAPP. The significance and difference in the functionality of these two forms of sAPP remains elusive. To distinguish the role of the α or β form of sAPP in promoting neural stem cell proliferation, neurospheres derived from adult mice neural stem cells were dissociated to single cells, plated for 8 days, treated with GM6001 or GM6001NK alone, treated with GM6001 and supplemented with conditioned media from neuroblastoma N2a cells expressing wild type APP, or treated with GM6001 and supplemented with conditioned media from 192 Swe N2a cells. Media conditioned by the neuroblastoma N2a was enriched in sαAPP as the wild type APP expressed in these cells was preferentially processed by α-secretase to produce sαAPP. The 192 Swe N2a conditioned medium was enriched in sβAPP as the 192 Swe N2a cells expressing the Swedish mutant form of APP that was preferentially cleaved by β-secretase. See Bogdanovic et al., 2001, Dement Geriatr. Congn. Discord. 12:364-70.

[3] = tested on: neurospheres from the SVZ of adult mice; experiment: BrdU proliferation assay of neurospheres (γ-secretase inhibitor or lentiviral siRNA); type: cell-based; details: 1 μM for 24 hours; FIG. 8A
Description: To further establish that reduced expression of PS1 decreased neural stem cell proliferation and induced neural stem cell differentiation, neurospheres established as described above from the SVZ of adult mice were subject to a proliferation assay following the treatment with the γ-secretase inhibitor L-685,458 (1 μM for 24 hours) (Sigma, St. Louis, Mo.). As a comparison, neurospheres were transduced with lentiviral vectors expressing either IR siRNA or PS1 siRNA. The proliferation assay was performed as follows: lentivirally-transduced neurospheres or γ-secretase inhibitor-treated neurospheres were singly dissociated and cultured (10,000 cells/well) with BrdU for 48 hours. BrdU-labeled cells were fixed in 4% PFA and immunolabeled with anti-BrdU antibodies followed by HRP-conjugated secondary antibodies. Thereafter, the cells were incubated with the TMD peroxidase substrate and read on a plate reader at 450-595 nm. […] Results were presented as a percentage of DMSO-treated NSCs.

neural stem cells = experiment: Neural stem cell differentiation assay on poly-L-ornithine/laminin; type: cell-based, mice
Description: The effects of γ-secretase inhibitor L-685,458 on neural stem cell differentiation was analyzed. Neural stem cells were allowed to differentiate when cultured on glass coverslips coated with 10 μg/mL poly-L-ornithine (Sigma, St. Louis, Mo.) and 5-10 μg/mL laminin (Sigma) in media with 5% fetal bovine serum without EGF and FGF.
γ-secretase inhibitor L-685,458-induced differentiation was further analyzed by immunostaining using antibodies to the astrocyte marker GFAP, and the early neural marker nestin. […] Scale bar=[…] (FIG. 8E, representative GFAP staining is marked with single arrows).
The length of the processes developed from the middle of the soma to the axon tip of GFAP positive cells after two days of L-685,458 treatment was analyzed and the results are shown in FIG. 8G. Twenty four hours after culturing whole neurospheres on laminin, vehicle-treated cultures remained mostly as neurospheres with slight cell differentiation (FIG. 8F, top panels).

Compound: 5′ GGACCAACTTGCATTCCAT 3′ (expressed or natural sequence) [PS1 siRNA 4-11]
- PS1 expression (PS1): reduced

Compound: CNC(=O)[C@H](Cc1c[nH]c2ccccc12)NC(=O)[C@@H](CC(=O)NO)CC(C)C [GM6001]
- levels of secreted sAPP in conditioned media (sAPP): reduced
- BrdU immunoreactivity (BrdU positive cells relative to DMSO control) [1]: Reduced BrdU immunoreactivity
- average diameter of neurospheres [2]: reduced the average diameter of neurospheres

Compound: CC(C)C[C@H](NC(=O)[C@H](Cc1ccccc1)C[C@@H](O)[C@H](Cc1ccccc1)NC(=O)OC(C)(C)C)C(=O)N[C@@H](Cc1ccccc1)C(N)=O [L-685,458]
- BrdU+ immunoreactivity (percentage of DMSO-treated NSCs) [3]: Reduced BrdU+ immunoreactivity; also recorded: reduced neural stem cell proliferation
- GFAP immunostaining (neural stem cells; FIG. 8E): Positive staining of GFAP
- neural progenitor cell differentiation (neural stem cells; differentiation medium, compared to DMSO, FIGS. 8B-8F): induced neural progenitor cell differentiation
- immunostaining for β-tubulin and GFAP (neural stem cells; neurospheres on laminin, FIG. 8F): increased immunostaining for both β-tubulin and GFAP
- differentiation of whole neurospheres cultured on laminin (neural stem cells; twenty four hours on laminin, FIG. 8F): extensive differentiation
- number of differentiated cells (neural stem cells; two-day treatment, compared to control, FIG. 8C): increased number of differentiated cells
- number of GFAP+Nestin+DCX+ cells (neural stem cells; two-day treatment, compared to control, FIG. 8H): dramatically decreased; also recorded: decrease
- number of neurospheres formed from singly-dissociated neurosphere cells (neural stem cells; two-day treatment, compared with control, FIG. 8D): reduced number of neurospheres
